Experimental findings from the supplement of paper PMC6045584 are described below.

Compound in experiment [1]: Cc1cn(-c2cc(NC(=O)c3ccc(C)c(Nc4nccc(-c5cccnc5)n4)c3)cc(C(F)(F)F)c2)cn1 [NILOTINIB]
As to the kind of experiment: surviving fraction relative to DMSO-only wells; higher = less growth inhibition. The following applies: exposure time: 5 days. An outline of the steps: (§1)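 Continuous five-day exposure to inhibitors at 0.5, 1, 5, 10, 50, 100, 500 and 1000 nM started 24 hours after log-phase tumour cell lines were seeded at 250–500 cells per well in 384-well plates. Luminescence was read after 10 minutes at room temperature. Viability is given as surviving fraction, meaning CellTiter-Glo luminescence normalised to the median of DMSO-only wells.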

Compound in experiment [2]: COc1cc2nccc(Oc3ccc(NC(=O)NC4CC4)c(Cl)c3)c2cc1C(N)=O [LENVATINIB]
The experiment is described as above. Particulars: exposure time: 5 days. Summed up:
as §1

± gives the standard deviation of the averaged measurements.

For the test system HCC38 BREAST, the surviving fraction in experiment [1] (0.5 nM) turned out to be 0.988 ± 0.28; in experiment [1] (1 nM) it was 0.786 ± 0.015; in experiment [1] (5 nM), 1.01 ± 0.16; in experiment [1] (10 nM), 0.818 ± 0.15; in experiment [1] (50 nM), 0.742 ± 0.2; in experiment [1] (100 nM) it was 0.758 ± 0.039. In addition, the surviving fraction in experiment [1] (500 nM) stood at 0.823 ± 0.24; in experiment [1] (1000 nM), 0.824 ± 0.16; in experiment [2] (0.5 nM), 1.03 ± 0.056; in experiment [2] (1 nM) it was 1.19 ± 0.23; in experiment [2] (5 nM), 1.24 ± 0.24; in experiment [2] (10 nM) it was 1.19 ± 0.091. Further, the surviving fraction came to 1.35 ± 0.052 in experiment [2] (50 nM), 1.28 ± 0.054 in experiment [2] (100 nM), 1.18 ± 0.091 in experiment [2] (500 nM) and 1.09 ± 0.17 in experiment [2] (1000 nM).

Turning to HMLE3 BREAST, the surviving fraction is 1.11 ± 0.018 in experiment [1] (0.5 nM); 1.07 ± 0.11 in experiment [1] (1 nM); 1.19 ± 0.1 in experiment [1] (5 nM); 1.18 ± 0.15 in experiment [1] (10 nM); 1.25 ± 0.026 in experiment [1] (50 nM); 1.26 ± 0.068 in experiment [1] (100 nM). Besides, the surviving fraction in experiment [1] (500 nM) turned out to be 1.27 ± 0.15; in experiment [1] (1000 nM) it was 1.23 ± 0.18; in experiment [2] (0.5 nM), 1.03 ± 0.019; in experiment [2] (1 nM), 0.951 ± 0.054; in experiment [2] (5 nM), 1.03 ± 0.052; in experiment [2] (10 nM) it was 1.05 ± 0.09. Moreover, the surviving fraction was determined as 0.998 ± 0.12 in experiment [2] (50 nM), 0.905 ± 0.096 in experiment [2] (100 nM), 0.718 ± 0.029 in experiment [2] (500 nM) and 0.658 ± 0.047 in experiment [2] (1000 nM).

In the case of G292 BONE, the surviving fraction in experiment [1] (0.5 nM) was 1.04 ± 0.042; in experiment [1] (1 nM), 1 ± 0.044; in experiment [1] (5 nM), 1.08 ± 0.033; in experiment [1] (10 nM), 1.06 ± 0.048; in experiment [1] (50 nM), 1.08 ± 0.031; in experiment [1] (100 nM), 1.1 ± 0.023. The surviving fraction in experiment [1] (500 nM) is 1.02 ± 0.013; in experiment [1] (1000 nM), 0.956 ± 0.023; in experiment [2] (0.5 nM), 0.99 ± 0.053; in experiment [2] (1 nM), 0.993 ± 0.054; in experiment [2] (5 nM), 1.02 ± 0.065; in experiment [2] (10 nM) it was 0.961 ± 0.019. The surviving fraction in experiment [2] (50 nM) came to 0.838 ± 0.027; in experiment [2] (100 nM), 0.725 ± 0.013; in experiment [2] (500 nM) it was 0.33 ± 0.017; in experiment [2] (1000 nM), 0.203 ± 0.0041.

In the case of HS578T BREAST, the surviving fraction in experiment [1] (0.5 nM) came out at 0.935 ± 0.21; in experiment [1] (1 nM), 1.06 ± 0.049; in experiment [1] (5 nM) it was 0.932 ± 0.16; in experiment [1] (10 nM), 0.796 ± 0.052; in experiment [1] (50 nM), 0.766 ± 0.084; in experiment [1] (100 nM), 0.841 ± 0.1. In addition, the surviving fraction in experiment [1] (500 nM) worked out at 0.848 ± 0.091; in experiment [1] (1000 nM) it was 0.669 ± 0.058; in experiment [2] (0.5 nM), 0.934 ± 0.11; in experiment [2] (1 nM), 1.16 ± 0.058; in experiment [2] (5 nM), 0.871 ± 0.17; in experiment [2] (10 nM) it was 0.974 ± 0.041. Besides, the surviving fraction in experiment [2] (50 nM) turned out to be 0.984 ± 0.078; in experiment [2] (100 nM) it was 0.91 ± 0.068; in experiment [2] (500 nM), 1.01 ± 0.1; in experiment [2] (1000 nM), 0.871 ± 0.045.

As to HS57T BREAST, the surviving fraction in experiment [1] (0.5 nM) turned out to be 1.02 ± 0.12; in experiment [1] (1 nM), 1.05 ± 0.04; in experiment [1] (5 nM) it was 1.05 ± 0.066; in experiment [1] (10 nM) it was 1.06 ± 0.015; in experiment [1] (50 nM), 0.99 ± 0.038; in experiment [1] (100 nM), 1.08 ± 0.11. For the same test system, the surviving fraction in experiment [1] (500 nM) was 0.983 ± 0.03; in experiment [1] (1000 nM), 0.967 ± 0.064; in experiment [2] (0.5 nM), 1.04 ± 0.027; in experiment [2] (1 nM), 1.01 ± 0.085; in experiment [2] (5 nM), 1.084 ± 0.0086; in experiment [2] (10 nM) it was 1.14 ± 0.049. In addition, the surviving fraction in experiment [2] (50 nM) worked out at 1.1 ± 0.042; in experiment [2] (100 nM) it was 1.09 ± 0.064; in experiment [2] (500 nM), 0.831 ± 0.029; in experiment [2] (1000 nM) it was 0.74 ± 0.023.

As to HMT3552 BREAST, the surviving fraction came out at 1.01 ± 0.031 in experiment [1] (0.5 nM); 0.968 ± 0.018 in experiment [1] (1 nM); 1.04 ± 0.021 in experiment [1] (5 nM); 1.02 ± 0.018 in experiment [1] (10 nM); 1.09 ± 0.11 in experiment [1] (50 nM); 1.07 ± 0.11 in experiment [1] (100 nM). Also, the surviving fraction in experiment [1] (500 nM) was 1.12 ± 0.12; in experiment [1] (1000 nM) it was 1.1 ± 0.069; in experiment [2] (0.5 nM), 1.03; in experiment [2] (1 nM), 0.978; in experiment [2] (5 nM), 1.01; in experiment [2] (10 nM), 0.921. Further, the surviving fraction came out at 0.975 in experiment [2] (50 nM), 1.02 in experiment [2] (100 nM), 0.944 in experiment [2] (500 nM) and 0.893 in experiment [2] (1000 nM).

Turning to HCC70 BREAST, the surviving fraction in experiment [1] (0.5 nM) turned out to be 1.07 ± 0.049; in experiment [1] (1 nM), 1.13 ± 0.036; in experiment [1] (5 nM), 1.12 ± 0.02; in experiment [1] (10 nM), 1.09 ± 0.13; in experiment [1] (50 nM), 1.17 ± 0.052; in experiment [1] (100 nM), 1.33 ± 0.072. The surviving fraction in experiment [1] (500 nM) came to 1.34 ± 0.079; in experiment [1] (1000 nM), 1.31 ± 0.04; in experiment [2] (0.5 nM), 1.12 ± 0.07; in experiment [2] (1 nM), 1.136 ± 0.004; in experiment [2] (5 nM), 1.08 ± 0.067; in experiment [2] (10 nM), 1.15 ± 0.013. The surviving fraction was determined as 1.27 ± 0.1 in experiment [2] (50 nM), 1.13 ± 0.056 in experiment [2] (100 nM), 1.054 ± 0.0066 in experiment [2] (500 nM) and 1.23 ± 0.09 in experiment [2] (1000 nM).
